Results from patent US20160045463A1, “USE OF METALLOPROTEASE INHIBITORS IN THE TREATMENT OF POLYCYSTIC LIVER DISEASES” (UNIVERSIDAD DE SALAMANCA, priority 2012, published 2016).

Columns and labels:
PCK rats = assay: Treatment of PCK rats with Marimastat for 8 weeks; assay type: in vivo, rat
Description: PCK rats, sold by the Charles River company, is a well characterised animal model of ARPKD and used for the study of liver and kidney cystogenesis (Mason S B, et al. The Anatomical Record: Advances in Integrative Anatomy and Evolutionary Biology 2010; 293:1279-1288). This colony of animals has a spontaneous orthologous mutation in the PKHD1 gene that causes them to develop liver and kidney symptoms similar to those of ARPKD patients. Thus, after 4 weeks of life, PCK rats, irrespective of sex, start to develop liver and kidney cystogenesis and fibrosis, which are clearly shown at 16 weeks of life. In addition, these animals also show an increase in serum values of creatinine, bilirubin, cholesterol, triglycerides and proteinuria (Mason S B, et al. The Anatomical Record: Advances in Integrative Anatomy and Evolutionary Biology 2010; 293:1279-1288). PCK rats were maintained on standard diet for the whole assay and all in vivo experimental procedures were approved by the Ethics Committee of the Instituto Biodonostia.
The group of control rats received the vehicle solution (i.e. distilled water) orally, 2 times a day (every ˜8-12 hours) and using the tube. Various biochemical markers were monitored in serum at the start and end of the study. Blood was extracted (500 μl through the tail vein) after anaesthetising the animal with isoflurane (inhalation anaesthesia, 2.5% in oxygen, with a flow rate of 0.3 L/min). After centrifuging the blood, various biochemical parameters were determined in the serum: alkaline phosphatase (ALP), transaminases (ALT, AST), bilirubin, biliary acids, creatinine, cholesterol, triglycerides and total proteins using a COBAS Integra400 Plus 174 analyser.
After sacrificing the animals, the liver and kidney were removed and weighed; next both types of tissue were sectioned with a scalpel and fixed with a solution of 10% formaldehyde, to be later included in paraffin. Slices of 5 μm thickness were made of each sample and stained with hematoxylin-eosin or picrosirius red.
The aim of hematoxylin-eosin staining is the determination of histological morphology. Thus the slices were incubated for 4 minutes with Harris hematoxylin (Merck) at room temperature. After incubation, the samples were washed with distilled water and stained with eosin (Merck) for 1 minute at room temperature. Next, the tissue slices were washed in running water for 5 minutes, dehydrated by immersion in solutions of increasing ethanol concentration (70%, 96%, 100% for 1 minute each) and finally incubated with xylol for 5 minutes. The samples were mounted with DePeX (Sigma) mounting medium for subsequent viewing in an optical microscope (Nikon Eclipse E800).
The purpose of picrosirius red staining is the determination of extracellular collagen in the tissue. When hydration was completed, the slices were stained with 0.2% phosphomolybdic acid (Panreac Química) for 2 minutes and washed with distilled water. Next, the samples were incubated with a solution of 0.1% picrosirius red f3B (Gibco) for 3 hours. Finally the samples were washed with a solution of 0.01 N HCl for 2 minutes; the tissue was then dehydrated and mounted as described in the previous section.
Additionally, the level of expression of various profibrotic hepatic markers [collagen 1a1 (Col1a1), beta transforming growth factor (TGFbeta), alpha actin of smooth muscle (alpha-Sma) and the growth factor of connective tissue (Ctgf)] and proinflammatory markers [IL-6, IL CXCL1 and IL1beta)] were analysed by RT-PCR in liver samples of control and PCK rats.

[1] = cited from earlier work
normal rats = assay: Normal rats treated with Marimastat orally for 1 week; assay type: in vivo, rat; conditions: oral, same dose
Procedure: The various biochemical and histological markers listed above were also analysed. […] There were also no changes in the mean body weight of the animals.

[2] = at the time of sacrifice, n = 9
[3] = serum, at the time of sacrifice, n = 9

## CNC(=O)[C@@H](NC(=O)[C@H](CC(C)C)[C@H](O)C(=O)NO)C(C)(C)C [Marimastat, N-[2,2-dimethyl-1-(methylcarbamoyl)propyl]-2-[hydroxy-(hydroxycarbamoyl)methyl]-4-methyl-pentanamide]
PCK rats; 8 weeks, FIG. 25
  kidney cystogenesis: not affected
PCK rats; 8 weeks, p<0.001, FIG. 27A
  cholangiocyte marker Ck19 expression at protein level (Western blot), hepatic samples: down regulation
PCK rats; 8 weeks, p<0.05, FIG. 27B
  collagen 1a1 (Col1a1) mRNA expression, hepatic samples: down regulation
PCK rats; 8 weeks, p=0.08, FIG. 28B
  mRNA levels of CXCL1 in liver samples: almost statistically significant down regulation
PCK rats; 8 weeks, p=0.1, FIG. 28A
  mRNA levels of IL6 in liver samples: almost statistically significant down regulation
PCK rats; 8 weeks, vs control PCK rats, FIG. 26
  collagen deposition in liver (picrosirius red): less collagen deposition
PCK rats; [2]
  WEIGHT Left kidney: 2.40 ± 0.19
  WEIGHT Liver: 26.17 ± 2.98
  WEIGHT Rat: 497 ± 12.24
  WEIGHT Right kidney: 2.36 ± 0.17
PCK rats; at the time of sacrifice, treated vs control, Table 5
  serum levels of biochemical markers and biliary flow: no difference
PCK rats; oral 0.2856 mg/kg/day, 8 weeks, vs control PCK rats, p<0.05, FIG. 24
  liver cystogenesis (area of intrahepatic biliary cysts): reduction
PCK rats; [3]
  ALT: 138.22 ± 2.66 U/L
  AST: 755.56 ± 24.76 U/L
  Albumin: 13.78 ± 0.59 g/L
  Alkaline phosphatase: 57.00 ± 5.01 U/L
  Cholesterol: 76.56 ± 3.93 mg/dL
  Creatinine: 0.36 ± 0.02 mg/dL
  Glucose: 137.89 ± 7.25 mg/dL
  HDL: 31.11 ± 3.06 mg/dL
  LDH: 15192.33 ± 356.84 U/L
  LDL: 33.38 ± 1.61 mg/dL
  Total bilirubin: 0.16 ± 0.05 mg/dL
  Total protein: 3.11 ± 0.12 g/dL
  Triglycerides: 60.33 ± 3.97 mg/dL
  Urea: 20.33 ± 0.78 mg/dL
[1]; compared with Batimastat
  oral bioavailability: better oral bioavailability
  toxicity: less toxicity
[1]; in vivo
  elimination half-life: 8 to 10 h
Normal rats
  histology of the liver or the kidney: did not affect
  mean body weight of the animals: no changes
  serum levels of biochemical markers: did not affect
